From ChEMBL document CHEMBL1201862, “PubChem BioAssay data set” (2004)
Counter-ions that a name gives are not always drawn.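 Test compounds were applied to cells in 96-well plates for 48 hours at 5 doses. The concentration for 50% growth inhibition is given as GI50.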 Activity calls are given as the source filed them. Cut-off read from the data, not from the text of the source: active = GI50 up to about 1.1 µM and inactive = higher.

Key:
Test in all cases: growth of human tumour cells (NCI), 48 h
786-0 = test system: 786-0
A498 = test system: A498
A549 = test system: A549
ACHN = test system: ACHN
BT-549 = test system: BT-549
CAKI-1 = test system: CAKI-1
CCRF-CEM = test system: CCRF-CEM
COLO 205 = test system: COLO 205
DU-145 = test system: DU-145
EKVX = test system: EKVX
HCT-116 = test system: HCT-116
HCT-15 = test system: HCT-15
HL-60 = test system: HL-60
HOP-62 = test system: HOP-62
HOP-92 = test system: HOP-92
HT-29 = test system: HT-29
Hs-578T = test system: Hs-578T
IGROV-1 = test system: IGROV-1
K562 = test system: K562
KM12 = test system: KM12
LOX IMVI = test system: LOX IMVI
M14 = test system: M14
MCF7 = test system: MCF7
MDA-MB-231 = test system: MDA-MB-231
MDA-MB-435 = test system: MDA-MB-435
MDA-N = test system: MDA-N
MOLT-4 = test system: MOLT-4
Malme-3M = test system: Malme-3M
NCI-H226 = test system: NCI-H226
NCI-H23 = test system: NCI-H23
NCI-H460 = test system: NCI-H460
NCI-H522 = test system: NCI-H522
NCI/ADR-RES = test system: NCI/ADR-RES
OVCAR-3 = test system: OVCAR-3
OVCAR-4 = test system: OVCAR-4
OVCAR-5 = test system: OVCAR-5
OVCAR-8 = test system: OVCAR-8
PC-3 = test system: PC-3
RPMI-8226 = test system: RPMI-8226
RXF 393 = test system: RXF 393
SF-268 = test system: SF-268
SF-295 = test system: SF-295
SF-539 = test system: SF-539
SK-MEL-28 = test system: SK-MEL-28
SK-MEL-2 = test system: SK-MEL-2
SK-MEL-5 = test system: SK-MEL-5
SK-OV-3 = test system: SK-OV-3
SN12C = test system: SN12C
SNB-19 = test system: SNB-19
SNB-75 = test system: SNB-75
SR = test system: SR
SW-620 = test system: SW-620
T47D = test system: T47D
TK-10 = test system: TK-10
U-251 = test system: U-251
UACC-257 = test system: UACC-257
UACC-62 = test system: UACC-62
UO-31 = test system: UO-31
HCC 2998 = test system: HCC 2998

Measured: GI50

COc1cc2c(cc1OC)C(CCN)=NCC2
inactive: 786-0 5.08 µM | A498 26.9 µM | A549 31.6 µM | ACHN 16.6 µM | BT-549 19.1 µM | CAKI-1 12.6 µM | CCRF-CEM 2.19 µM | COLO 205 14.3 µM | DU-145 17.9 µM | EKVX 23.1 µM | HCT-116 18.4 µM | HOP-62 21.1 µM | HOP-92 6.82 µM | HT-29 20.2 µM | Hs-578T 27.7 µM | IGROV-1 22.6 µM | K562 11.2 µM | KM12 19 µM | LOX IMVI 18.8 µM | M14 17.2 µM | MCF7 18.2 µM | MDA-MB-231 16.6 µM | MDA-MB-435 16.5 µM | MDA-N 15.8 µM | MOLT-4 17.1 µM | Malme-3M 18.8 µM | NCI-H226 > 46.1 µM | NCI-H23 13.1 µM | NCI-H460 > 59.2 µM | NCI-H522 3.82 µM | NCI/ADR-RES 27.4 µM | OVCAR-3 18 µM | OVCAR-4 21.2 µM | OVCAR-5 > 42.6 µM | OVCAR-8 18.2 µM | PC-3 16 µM | RPMI-8226 5.33 µM | RXF 393 15.7 µM | SF-268 19.5 µM | SF-295 > 100 µM | SF-539 6.75 µM | SK-MEL-28 18.4 µM | SK-MEL-2 17.4 µM | SK-MEL-5 20 µM | SK-OV-3 > 76.7 µM | SN12C 19 µM | SNB-19 41.4 µM | SNB-75 18.5 µM | SR 4.58 µM | SW-620 5 µM | T47D 8.32 µM | TK-10 10.2 µM | U-251 16.4 µM | UACC-257 17.9 µM | UACC-62 18.2 µM | UO-31 1.77 µM
19.6 µM: HCT-15
active: HL-60 0.839 µM

O=C1/C(=C\c2ccco2)Oc2ccccc21
inactive: 786-0 > 100 µM | A498 > 100 µM | A549 > 100 µM | ACHN > 100 µM | BT-549 > 100 µM | CAKI-1 > 100 µM | CCRF-CEM > 100 µM | COLO 205 > 100 µM | DU-145 > 100 µM | EKVX 42.9 µM | HCC 2998 > 100 µM | HCT-116 > 100 µM | HL-60 39.4 µM | HOP-62 > 100 µM | HOP-92 > 100 µM | HT-29 > 100 µM | Hs-578T > 100 µM | IGROV-1 99.1 µM | K562 > 100 µM | KM12 > 100 µM | LOX IMVI > 100 µM | M14 > 100 µM | MCF7 29.4 µM | MDA-MB-231 > 100 µM | MDA-MB-435 > 100 µM | MDA-N > 100 µM | MOLT-4 23.7 µM | NCI-H226 > 100 µM | NCI-H23 > 100 µM | NCI-H460 > 100 µM | NCI-H522 > 100 µM | NCI/ADR-RES > 100 µM | OVCAR-3 98.9 µM | OVCAR-4 > 100 µM | OVCAR-5 > 100 µM | OVCAR-8 > 100 µM | PC-3 > 100 µM | RPMI-8226 89.5 µM | RXF 393 > 100 µM | SF-268 > 100 µM | SF-295 > 100 µM | SK-MEL-28 > 100 µM | SK-MEL-2 > 100 µM | SK-MEL-5 > 100 µM | SK-OV-3 > 100 µM | SN12C > 100 µM | SNB-19 > 100 µM | SNB-75 > 100 µM | SR 55.2 µM | SW-620 > 100 µM | T47D 72.3 µM | TK-10 > 100 µM | U-251 > 100 µM | UACC-257 > 100 µM | UACC-62 > 100 µM | UO-31 76.2 µM
> 100 µM: HCT-15

CN1C[C@H](C(=O)N[C@]2(C)O[C@@]3(O)[C@@H]4CCCN4C(=O)[C@H](Cc4ccccc4)N3C2=O)C=C2c3cccc4[nH]cc(c34)C[C@H]21 [ERGOTAMINE TARTRATE]
18.9 µM: HCT-15
inactive: 786-0 20 µM | A498 15 µM | A549 37.8 µM | ACHN 21.8 µM | BT-549 20.9 µM | CAKI-1 26.4 µM | CCRF-CEM 20 µM | COLO 205 16.5 µM | DU-145 22.2 µM | EKVX 30.8 µM | HCT-116 21 µM | HL-60 19.2 µM | HOP-62 23.9 µM | HOP-92 16.9 µM | HT-29 23.9 µM | Hs-578T 10.2 µM | IGROV-1 20 µM | K562 25.4 µM | KM12 28.8 µM | LOX IMVI 15.5 µM | M14 22.3 µM | MCF7 20.7 µM | MDA-MB-231 19.2 µM | MDA-MB-435 15.9 µM | MDA-N 18.5 µM | MOLT-4 23.9 µM | Malme-3M 18.3 µM | NCI-H226 30.3 µM | NCI-H23 21.5 µM | NCI-H522 16.3 µM | NCI/ADR-RES 26.3 µM | OVCAR-3 18.3 µM | OVCAR-4 20.7 µM | OVCAR-5 20.2 µM | OVCAR-8 19.3 µM | PC-3 18.3 µM | RPMI-8226 22.9 µM | RXF 393 18 µM | SF-268 13.2 µM | SF-295 19.3 µM | SF-539 12.1 µM | SK-MEL-28 17.1 µM | SK-MEL-2 17.4 µM | SK-MEL-5 14.2 µM | SK-OV-3 29.9 µM | SN12C 20 µM | SNB-19 35.1 µM | SNB-75 35.6 µM | SR 16.1 µM | SW-620 23.4 µM | T47D 33 µM | TK-10 17.4 µM | U-251 18.6 µM | UACC-257 13.9 µM | UACC-62 16 µM | UO-31 29.1 µM
